Where a name gives a salt, the structure may show the parent alone.
Legend:
schizophrenia = settings: clinical, literature, cited from earlier work
[1] = literature; cited from earlier work
dopamine D4 receptor = settings: literature; cited from earlier work
human D4.2 receptor = biological target: T1, human D4.2 receptor (Homo sapiens, UniProt P21917, DEL265-296); assay: Dopamine D4 receptor binding test ([3H] spiperone); settings: human D4.2 receptor in CHO cell membrane; [3H] spiperone 0.5 nM; 2 hours at 27° C., pH 7.4
T1 construct: expressed in transfected cells; host or cells: Chinese hamster ovary (CHO) cells, membranes
T1 sequence (P21917 with tags, fused parts or gaps DEL265-296): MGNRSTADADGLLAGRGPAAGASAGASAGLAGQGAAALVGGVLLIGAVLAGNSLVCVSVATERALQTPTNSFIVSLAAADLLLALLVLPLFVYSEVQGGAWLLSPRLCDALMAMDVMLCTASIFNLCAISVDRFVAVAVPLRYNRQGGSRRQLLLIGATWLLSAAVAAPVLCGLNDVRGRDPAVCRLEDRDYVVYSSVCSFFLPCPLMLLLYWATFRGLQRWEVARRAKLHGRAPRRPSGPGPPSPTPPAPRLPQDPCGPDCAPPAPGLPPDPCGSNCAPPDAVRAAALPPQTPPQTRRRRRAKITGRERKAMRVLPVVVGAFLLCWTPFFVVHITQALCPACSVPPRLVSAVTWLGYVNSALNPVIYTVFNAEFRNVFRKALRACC
Protocol: 1. Dopamine D4 receptor binding test
Chinese hamster ovary (CHO) cell membrane, in which human D4.2 receptor was expressed, was used as a receptor sample.
[^3 H] Spiperone was used as a [^3 H]-labeled ligand.
The binding reaction using the [^3 H]-labeled ligand was carried out by the following method described in Eur. J. Pharmacol., 233, 173 (1993).
Human D4.2 receptor binding test: The CHO cell membrane, in which human D4.2 receptor has been expressed, [^3 H] spiperone (0.5 nM) and each test compound were allowed to undergo 2 hours of reaction at 27° C. in 50 mM Tris-HCl buffer (pH 7.4) containing 5 mM EDTA, 1.5 mM CaCl2, 5 mM KCl and 120 mM NaCl.
After completion of the reaction, the reaction solution was filtered by suction through a glass filter (GF/B), and radioactivity on the filter paper was measured using a liquid scintillation spectrometer.
The binding when the reaction was carried out in the presence of 10 μM haloperidol was defined as non-specific binding of [^3 H] spiperone, and the difference between total binding and non-specific binding was defined as specific binding. An inhibition curve was obtained by allowing a fixed concentration of [^3 H] spiperone to react with varied concentration of each compound to be tested under the aforementioned conditions, and the concentration of each test compound which inhibits 50% of the [^3 H] spiperone binding (IC50) was calculated from the inhibition curve, with the results shown in Table 3.

Dopamine D2 receptor = Dopamine D2 receptor (Rattus norvegicus, UniProt P61169); assay: Dopamine D2 receptor binding test ([3H] raclopride); settings: rat striate body membrane; [3H] raclopride 1 nM; 1 hour at 25° C.
Chain of Dopamine D2 receptor (P61169 whole entry): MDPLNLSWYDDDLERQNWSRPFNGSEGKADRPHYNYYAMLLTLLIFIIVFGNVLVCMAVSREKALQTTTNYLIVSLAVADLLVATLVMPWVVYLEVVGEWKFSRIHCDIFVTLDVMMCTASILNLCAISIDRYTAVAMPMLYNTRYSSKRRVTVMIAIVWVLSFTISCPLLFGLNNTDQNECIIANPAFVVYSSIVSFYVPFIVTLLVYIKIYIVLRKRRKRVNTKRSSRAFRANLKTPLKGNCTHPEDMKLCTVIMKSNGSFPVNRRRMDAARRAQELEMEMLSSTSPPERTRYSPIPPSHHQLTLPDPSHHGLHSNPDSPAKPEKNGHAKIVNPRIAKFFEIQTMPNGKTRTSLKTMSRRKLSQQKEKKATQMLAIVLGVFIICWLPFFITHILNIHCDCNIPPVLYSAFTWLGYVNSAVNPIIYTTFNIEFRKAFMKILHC

Row | SMILES | IC50 (human D4.2 receptor) | IC50 (Dopamine D2 receptor) | efficacy in schizophrenia (schizophrenia) | extrapyramidal disorders (schizophrenia; unlike dopamine D2 receptor antagonists) | hemotoxicity [1] | affinity for dopamine D4 receptor relative to dopamine D2 receptor (dopamine D4 receptor)
1 | CN1CCN(C2=Nc3cc(Cl)ccc3Nc3ccccc32)CC1 [Clozapine] |  |  | effective in drug-resistant schizophrenia and negative symptoms | causes less extrapyramidal disorders | generates a hemotoxin as agranulocytosis which resulted in certain mortal cases | higher than its affinity for dopamine D2 receptor
2 | CCOC(=O)c1nc(-c2ccc(F)cc2)c(CCN2CCC(=Cc3cccc(F)c3)CC2)s1 [Compound A-09, 2-ethoxycarbonyl-4-(4-fluorophenyl)-5-[2-[4-(3-fluorobenzylidene)piperidin-1-yl]ethyl]thiazole hydrochloride] | 0.0139 µM | > 1 µM |  |  |  | 
3 | O=C(O)c1nc(-c2ccc(F)cc2)c(CCN2CCC(=Cc3cccc(F)c3)CC2)s1 [Compound A-11, 2-carboxylic acid-4-(4-fluorophenyl)-5-[2-[4-(3-fluorobenzylidene)piperidin-1-yl]ethyl]thiazole potassium salt] | 0.0105 µM | ≥ 1 µM |  |  |  | 
4 | Cc1ccc(C=C2CCN(CCc3sc(C(N)=O)nc3-c3ccc(F)cc3)CC2)cc1 [Compound A-15] | 0.0183 µM | 0.433 µM |  |  |  | 
5 | Cc1ccc(-c2nc(C(N)=O)sc2CCN2CCC(=Cc3ccc(F)cc3)CC2)cc1 [Compound A-20] | 0.00955 µM | 0.187 µM |  |  |  | 

The next lines start with results.

Row | IC50 (human D4.2 receptor) | IC50 (Dopamine D2 receptor) | SMILES | efficacy in schizophrenia (schizophrenia) | extrapyramidal disorders (schizophrenia; unlike dopamine D2 receptor antagonists) | hemotoxicity [1] | affinity for dopamine D4 receptor relative to dopamine D2 receptor (dopamine D4 receptor)
6 | 0.00546 µM | ≥ 1 µM | NC(=O)c1nc(-c2ccc(F)cc2)c(CCN2CCC(=Cc3ccc(F)cc3)CC2)s1 [Compound A-02] |  |  |  | 
7 | 0.00453 µM | 0.559 µM | NC(=O)c1nc(-c2ccc(F)cc2)c(CCN2CCC(=Cc3cccc(F)c3)CC2)s1 [Compound A-10, 2-carbamoyl-4-(4-fluorophenyl)-5-[2-[4-(3-fluorobenzylidene)piperidin-1-yl]ethyl]thiazole] |  |  |  | 
8 | 0.00313 µM | 0.143 µM | NC(=O)c1nc(-c2ccc(F)cc2)c(CCN2CCC(=Cc3ccccc3)CC2)s1 [Compound A-13] |  |  |  | 
9 | 0.00599 µM | 0.628 µM | NC(=O)c1nc(-c2ccccc2)c(CCN2CCC(=Cc3ccc(F)cc3)CC2)s1 [Compound A-17] |  |  |  | 
10 | 0.00343 µM | > 1 µM | CCOC(=O)c1nc(-c2ccc(F)cc2)c(CCN2CCC(C(=O)c3ccc(F)cc3)CC2)s1 [Compound A-21] |  |  |  | 
11 | 0.00313 µM | 0.0722 µM | NC(=O)c1nc(-c2ccc(F)cc2)c(CCN2CCC(C(=O)c3ccc(F)cc3)CC2)s1 [Compound A-22] |  |  |  | 
